Measured values reported in US8247211B2, “Glycopeptide antibiotics” (American Cyanamid Company, priority 2001, dated 2012).

Legend:
Test in all cases: In vitro antibacterial evaluation: minimum inhibitory concentration (MIC), broth dilution method
Type in all cases: cell-based
[1] = test system: Streptococcus sp.; details: 18 hours at 35° C.
Outline: (§1)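 NCCLS M7-A2 broth dilution with Mueller-Hinton II, testing 64-0.06 μg/mL antibiotic against 5×10^5 CFU/mL inocula. Test strains include recent methicillin-, penicillin- or vancomycin-resistant clinical isolates. MIC is the lowest concentration preventing growth.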

[2] = test system: Staphylococcus sp.; details: 18 hours at 35° C.
Outline: as §1

[3] = test system: Enterococcus sp.
Outline: as §1

[4] = test system: Escherichia coli
Outline: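 Inoculum: 5×10^5 CFU/mL. Range: 64-0.06 μg/mL. Medium: Muller-Hinton II […]; NCCLS M7-A2 broth dilution. Endpoint: lowest concentration inhibiting growth. Strains include methicillin-, penicillin- and/or vancomycin-resistant clinical isolates.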

[5] = test system: Escherichia coli; remark: listed apart in the source

## β-O-[(N-Methyl-2-methylpropylamino)carbonyl]-cyclo[glycyl-β-methylphenylalanyl-O-(4-O-hexopyranosylhexopyranosyl)tyrosyl-3-(2-iminoimidazolidin-4-yl)seryl-3-(3-hexopyranosyl-2-iminoimidazolidin-4-yl)serylseryl] [Example 255a]
[1]; Streptococcus agalactiae (GC 4564)
  MIC Streptococcus agalactiae (GC 4564): 64 µg/mL
[1]; Streptococcus pneumoniae (GC 4565)
  MIC Streptococcus pneumoniae (GC 4565): 32 µg/mL
[1]; Streptococcus pyogenes (GC 4563)
  MIC Streptococcus pyogenes (GC 4563): 32 µg/mL
[1]; broth dilution, strain GC 4563
  MIC Streptococcus pyogenes (GC 4563): 32 µg/mL
[1]; broth dilution, strain GC 4564
  MIC Streptococcus agalactiae (GC 4564): 64 µg/mL
[1]; broth dilution, strain GC 4565
  MIC Streptococcus pneumoniae (GC 4565): 32 µg/mL
[2]; Coagulase Negative Staphylococcus (GC 4547)
  MIC Coagulase Negative Staphylococcus (GC 4547): 64 µg/mL
[2]; Coagulase Negative Staphylococcus (GC 4548)
  MIC Coagulase Negative Staphylococcus (GC 4548): >64 µg/mL
[2]; Coagulase Negative Staphylococcus (GC 4549)
  MIC Coagulase Negative Staphylococcus (GC 4549): 64 µg/mL
[2]; Coagulase Negative Staphylococcus (GC 4551)
  MIC Coagulase Negative Staphylococcus (GC 4551): >64 µg/mL
[2]; Coagulase Negative Staphylococcus (GC 6257)
  MIC Coagulase Negative Staphylococcus (GC 6257): 64 µg/mL
[2]; Staphylococcus aureus (ATCC 29213)
  MIC Staphylococcus aureus (ATCC 29213): >0.5 µg/mL
[2]; Staphylococcus aureus (GC 1131)
  MIC Staphylococcus aureus (GC 1131): >0.5 µg/mL
[2]; Staphylococcus aureus (GC 3051)
  MIC Staphylococcus aureus (GC 3051): 0.5 µg/mL
[2]; Staphylococcus aureus (GC 3053)
  MIC Staphylococcus aureus (GC 3053): 0.5 µg/mL
[2]; Staphylococcus aureus (GC 4541)
  MIC Staphylococcus aureus (GC 4541): >0.5 µg/mL
[2]; Staphylococcus aureus (GC 4542)
  MIC Staphylococcus aureus (GC 4542): >0.5 µg/mL
[2]; Staphylococcus aureus (GC 4544)
  MIC Staphylococcus aureus (GC 4544): >0.5 µg/mL
[2]; Staphylococcus aureus (GC 4545)
  MIC Staphylococcus aureus (GC 4545): >0.5 µg/mL
[2]; Staphylococcus aureus-SMITH (GC 4543)
  MIC Staphylococcus aureus-SMITH (GC 4543): >0.5 µg/mL
[2]; Staphylococcus haemolyticus (GC 4546)
  MIC Staphylococcus haemolyticus (GC 4546): 64 µg/mL
[2]; broth dilution, strain ATCC 29213
  MIC Staphylococcus aureus (ATCC 29213): >0.5 µg/mL
[2]; broth dilution, strain GC 1131
  MIC Staphylococcus aureus (GC 1131): >0.5 µg/mL
[2]; broth dilution, strain GC 3051
  MIC Staphylococcus aureus (GC 3051): 0.5 µg/mL
[2]; broth dilution, strain GC 3053
  MIC Staphylococcus aureus (GC 3053): 0.5 µg/mL
[2]; broth dilution, strain GC 4541
  MIC Staphylococcus aureus (GC 4541): >0.5 µg/mL
[2]; broth dilution, strain GC 4542
  MIC Staphylococcus aureus (GC 4542): >0.5 µg/mL
[2]; broth dilution, strain GC 4544
  MIC Staphylococcus aureus (GC 4544): >0.5 µg/mL
[2]; broth dilution, strain GC 4545
  MIC Staphylococcus aureus (GC 4545): >0.5 µg/mL
[3]; Enterococcus avium (GC 4558)
  MIC Enterococcus avium (GC 4558): >0.5 µg/mL
[3]; Enterococcus faecalis (ATCC 29212)
  MIC Enterococcus faecalis (ATCC 29212): >0.5 µg/mL
[3]; Enterococcus faecalis (GC 2242), 18 hours at 35° C.
  MIC Enterococcus faecalis (GC 2242): >0.5 µg/mL
[3]; Enterococcus faecalis (GC 2691), 18 hours at 35° C.
  MIC Enterococcus faecalis (GC 2691): >0.5 µg/mL
[3]; Enterococcus faecalis (GC 3059), 18 hours at 35° C.
  MIC Enterococcus faecalis (GC 3059): >0.5 µg/mL
[3]; Enterococcus faecalis (GC 4552), 18 hours at 35° C.
  MIC Enterococcus faecalis (GC 4552): >0.5 µg/mL
[3]; Enterococcus faecalis (GC 4553)
  MIC Enterococcus faecalis (GC 4553): >0.5 µg/mL
[3]; Enterococcus faecalis (GC 4554)
  MIC Enterococcus faecalis (GC 4554): >0.5 µg/mL
[3]; Enterococcus faecalis (GC 6189)
  MIC Enterococcus faecalis (GC 6189): >0.5 µg/mL
[3]; Enterococcus faecium (GC 2243)
  MIC Enterococcus faecium (GC 2243): >64 µg/mL
[3]; Enterococcus faecium (GC 4556)
  MIC Enterococcus faecium (GC 4556): >64 µg/mL
[3]; Enterococcus faecium (GC 4557)
  MIC Enterococcus faecium (GC 4557): 32 µg/mL
[3]; broth dilution, 18 hours at 35° C., strain ATCC 29212
  MIC Enterococcus faecalis (ATCC 29212): >0.5 µg/mL
[3]; broth dilution, 18 hours at 35° C., strain GC 2242
  MIC Enterococcus faecalis (GC 2242): >0.5 µg/mL
[3]; broth dilution, 18 hours at 35° C., strain GC 2243
  MIC Enterococcus faecium (GC 2243): >64 µg/mL
[3]; broth dilution, 18 hours at 35° C., strain GC 2691
  MIC Enterococcus faecalis (GC 2691): >0.5 µg/mL
[3]; broth dilution, 18 hours at 35° C., strain GC 3059
  MIC Enterococcus faecalis (GC 3059): >0.5 µg/mL
[3]; broth dilution, 18 hours at 35° C., strain GC 4552
  MIC Enterococcus faecalis (GC 4552): >0.5 µg/mL
[3]; broth dilution, 18 hours at 35° C., strain GC 4553
  MIC Enterococcus faecalis (GC 4553): >0.5 µg/mL
[3]; broth dilution, 18 hours at 35° C., strain GC 4554
  MIC Enterococcus faecalis (GC 4554): >0.5 µg/mL
[3]; broth dilution, 18 hours at 35° C., strain GC 4556
  MIC Enterococcus faecium (GC 4556): >64 µg/mL
[3]; broth dilution, 18 hours at 35° C., strain GC 4557
  MIC Enterococcus faecium (GC 4557): 32 µg/mL
[3]; broth dilution, 18 hours at 35° C., strain GC 4558
  MIC Enterococcus avium (GC 4558): >0.5 µg/mL
[3]; broth dilution, 18 hours at 35° C., strain GC 6189
  MIC Enterococcus faecalis (GC 6189): >0.5 µg/mL
[4]; Escherichia coli (GC 4559)
  MIC Escherichia coli (GC 4559): >0.5 µg/mL
[4]; Escherichia coli (GC 4560)
  MIC Escherichia coli (GC 4560): 0.5 µg/mL
[5]
  MIC Escherichia coli (ATCC 25922): >0.5 µg/mL
